Experimental data as given in US11564920B2, “5-heteroaryl-1H-pyrazol-3-amine derivative” (Sumitomo Pharma Co., Ltd., priority 2020, dated 2023).
Entries after “also recorded” stand apart in the source; their conditions may differ.

Tests used:
[1] = biological target: T1, CHK1 (Homo sapiens (Human), UniProt O14757); experiment: Kinase selectivity test (HotSpot Full Panel Kinase profiling); type: biochemical; conditions: 100 nM, ATP 10 μM; read-out: Residual activity (%) CHK1
Protocol: (§1) Buffer: 20 mM HEPES, pH 7.5, 10 mM MgCl2, 2 mM […] (as needed), 1 mM EGTA, 0.02% Brij35, 0.02 mg/mL BSA, 0.1 mM Na3VO4, 2 mM DTT, 1% DMSO
(§2) Compound concentration: 100 nM

[2] = biological target: T1, CHK1; experiment: CHK1 inhibitory activity test (IMAP TR-FRET); type: biochemical
Protocol: IMAP TR-FRET Screening Express Kit (R8160) was obtained from Molecular Devices. […] FAM-PKAtide (R7255, Molecular Devices) and FAM-Phospho-PKAtide (R7304, Molecular Devices) were admixed after dilution, and calibration standard systems for phosphorylation levels from 0 to 100% were created. 5 μL of a compound dissolved in a 0.4% DMSO solution was added to a 384 well plate. A compound study group to which 5 μL of each of CHK1, CHK1tide, and ATP was added, and a standard group to which 20 μL of standard was added were created, and subjected to a kinase reaction for 3 hours at 30° C. Subsequently, 60 μL of Binding Reagent (80% Buffer A, 20% Buffer B, 1:600 Binding Reagent, 1:400 Tb-Donor) was added for a binding reaction for 2 hours at room temperature.

[3] = biological target: hERG current (Homo sapiens (Human), UniProt Q12809); experiment: cell-based
Protocol: The test compounds were added to cultured hERG (human Ether-a-go-go Related Gene) gene stably expressing CHO cell line cells to achieve 0.27 to 100 μM.

[4] = system: Human bone marrow CD34 positive hematopoietic stem cells; experiment: Human bone marrow cell colony formation test (hemotoxicological evaluation test); type: cell-based; conditions: 100 nM; for Colony count (/well), mean: 48 hours, then about 2 weeks culture
Protocol: Human bone marrow CD34 positive hematopoietic stem cells were obtained from Lonza K. K. The frozen cells were thawed in a medium prepared by mixing a Methocult Express medium and a 10% fetal bovine serum with 1% penicillin/streptomycin containing RPMI 1640 medium at 9:1. 5000 cells were seeded per well in a 6 well plate and cultured overnight at […] in the presence of 5% CO2. The evaluated compound was added so that the final concentration of DMSO would be 0.1% and 100 nM, and the cells were cultured for 48 hours. The cells were retrieved and washed with PBS. ⅙ of the amount of cells was seeded in a 12 well plate and cultured for about. 2 weeks at 37° C. in the presence of 5% CO2. After completion of culture, the number of colonies formed was calculated using Thiazolyl blue tetrazolium bromide (MTT).

[5] = system: Human bone marrow CD34 positive hematopoietic stem cells; experiment: Human bone marrow cell myeloid lineage differentiation induction test; type: cell-based; conditions: 3 nM
Protocol: Human bone marrow CD34 positive hematopoietic stem cells were obtained from Lonza K. K. The frozen cells were thawed in a […] fetal bovine serum containing IMDM medium and suspended in a Complete hemaTox® Myeloid Medium. 1000 cells were seeded per well in a 96-well plate. The evaluated compound was added so that the final concentration of DMSO would be […] and 3 nM, and the cells were cultured for 7 days at 37° C. in the presence of 5% CO2. After completion of culture, half of the amount of cell suspension was retrieved from each well. The luminescence was measured using CellTiter-Glo® 3D Reagent (Promega, G968B) to calculate the cell survival percentage by the following equation. Cell survival percentage (%)=(measurement value of luminescence after 7 days of evaluated compound)/(measurement value of luminescence after 7 days of control group)×100

[6] = biological target: T1, CHK1; experiment: CHK1/CHK2 selectivity test (LabChip mobility shift); type: biochemical; conditions: read-out: IC50 value with respect to CHK1
[7] = biological target: CDK8/CYCLIN C (Homo sapiens (Human), UniProt P49336); experiment: Kinase selectivity test (HotSpot Full Panel Kinase profiling); type: biochemical; conditions: 100 nM, ATP 10 μM; read-out: Residual activity (%) CDK8/CYCLIN C
Sequence of CDK8/CYCLIN C (P49336 whole entry): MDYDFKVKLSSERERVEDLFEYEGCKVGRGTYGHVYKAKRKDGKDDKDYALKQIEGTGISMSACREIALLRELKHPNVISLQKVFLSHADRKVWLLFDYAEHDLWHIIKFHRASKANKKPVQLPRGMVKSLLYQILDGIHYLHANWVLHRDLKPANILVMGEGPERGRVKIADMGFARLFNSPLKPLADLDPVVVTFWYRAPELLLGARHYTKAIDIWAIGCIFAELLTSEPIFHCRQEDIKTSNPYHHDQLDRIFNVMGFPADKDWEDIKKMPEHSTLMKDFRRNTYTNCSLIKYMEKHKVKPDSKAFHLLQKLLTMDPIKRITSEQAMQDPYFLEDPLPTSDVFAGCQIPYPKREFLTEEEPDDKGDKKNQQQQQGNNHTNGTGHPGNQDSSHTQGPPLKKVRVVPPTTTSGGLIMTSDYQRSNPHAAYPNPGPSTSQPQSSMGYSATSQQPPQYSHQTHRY
Sequence of CDK8/CYCLIN C (P24863 whole entry partner): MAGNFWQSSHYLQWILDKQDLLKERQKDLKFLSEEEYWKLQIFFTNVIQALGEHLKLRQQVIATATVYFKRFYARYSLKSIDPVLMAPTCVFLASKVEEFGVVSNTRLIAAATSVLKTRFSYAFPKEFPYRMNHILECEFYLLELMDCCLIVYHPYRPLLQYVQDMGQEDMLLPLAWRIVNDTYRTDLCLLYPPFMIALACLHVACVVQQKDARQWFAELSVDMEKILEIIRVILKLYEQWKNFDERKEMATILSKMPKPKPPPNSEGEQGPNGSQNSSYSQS
Protocol: as §1, §2

[8] = biological target: MARK1 (Homo sapiens (Human), UniProt Q9P0L2); experiment: as above; type: biochemical; conditions: 100 nM, ATP 10 μM; read-out: Residual activity (%) MARK1
Sequence of MARK1 (Q9P0L2 whole entry): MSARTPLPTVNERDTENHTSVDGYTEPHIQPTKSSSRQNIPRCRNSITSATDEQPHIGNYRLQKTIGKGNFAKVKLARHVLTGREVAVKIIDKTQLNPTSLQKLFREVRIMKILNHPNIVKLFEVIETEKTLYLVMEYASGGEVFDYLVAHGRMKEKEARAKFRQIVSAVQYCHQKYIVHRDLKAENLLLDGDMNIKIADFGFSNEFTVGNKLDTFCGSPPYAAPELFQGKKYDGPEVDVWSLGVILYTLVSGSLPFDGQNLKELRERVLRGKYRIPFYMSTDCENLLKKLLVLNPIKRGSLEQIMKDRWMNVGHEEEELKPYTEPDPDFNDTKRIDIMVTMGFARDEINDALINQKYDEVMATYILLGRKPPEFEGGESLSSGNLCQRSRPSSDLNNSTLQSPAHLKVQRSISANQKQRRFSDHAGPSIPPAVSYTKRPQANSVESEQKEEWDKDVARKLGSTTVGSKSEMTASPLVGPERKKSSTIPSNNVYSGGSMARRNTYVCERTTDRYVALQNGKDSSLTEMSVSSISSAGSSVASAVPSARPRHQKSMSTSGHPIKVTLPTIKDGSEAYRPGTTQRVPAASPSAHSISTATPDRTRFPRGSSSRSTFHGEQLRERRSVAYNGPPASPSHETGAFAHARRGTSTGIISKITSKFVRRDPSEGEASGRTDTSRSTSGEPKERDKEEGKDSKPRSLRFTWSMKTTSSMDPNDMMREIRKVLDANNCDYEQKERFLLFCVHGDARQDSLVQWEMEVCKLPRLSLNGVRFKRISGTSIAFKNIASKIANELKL
Protocol: as §1, §2

[9] = biological target: MARK2/PAR-1BA (Homo sapiens (Human), UniProt Q7KZI7); experiment: as above; type: biochemical; conditions: 100 nM, ATP 10 μM; read-out: Residual activity (%) MARK2/PAR-1BA (PAR-18A in Table 33)
Protocol: as §1, §2

[10] = biological target: LOK/STK10 (Homo sapiens (Human), UniProt O94804); experiment: as above; type: biochemical; conditions: 100 nM, ATP 10 μM; read-out: Residual activity (%) LOK/STK10
Sequence of LOK/STK10 (O94804 whole entry): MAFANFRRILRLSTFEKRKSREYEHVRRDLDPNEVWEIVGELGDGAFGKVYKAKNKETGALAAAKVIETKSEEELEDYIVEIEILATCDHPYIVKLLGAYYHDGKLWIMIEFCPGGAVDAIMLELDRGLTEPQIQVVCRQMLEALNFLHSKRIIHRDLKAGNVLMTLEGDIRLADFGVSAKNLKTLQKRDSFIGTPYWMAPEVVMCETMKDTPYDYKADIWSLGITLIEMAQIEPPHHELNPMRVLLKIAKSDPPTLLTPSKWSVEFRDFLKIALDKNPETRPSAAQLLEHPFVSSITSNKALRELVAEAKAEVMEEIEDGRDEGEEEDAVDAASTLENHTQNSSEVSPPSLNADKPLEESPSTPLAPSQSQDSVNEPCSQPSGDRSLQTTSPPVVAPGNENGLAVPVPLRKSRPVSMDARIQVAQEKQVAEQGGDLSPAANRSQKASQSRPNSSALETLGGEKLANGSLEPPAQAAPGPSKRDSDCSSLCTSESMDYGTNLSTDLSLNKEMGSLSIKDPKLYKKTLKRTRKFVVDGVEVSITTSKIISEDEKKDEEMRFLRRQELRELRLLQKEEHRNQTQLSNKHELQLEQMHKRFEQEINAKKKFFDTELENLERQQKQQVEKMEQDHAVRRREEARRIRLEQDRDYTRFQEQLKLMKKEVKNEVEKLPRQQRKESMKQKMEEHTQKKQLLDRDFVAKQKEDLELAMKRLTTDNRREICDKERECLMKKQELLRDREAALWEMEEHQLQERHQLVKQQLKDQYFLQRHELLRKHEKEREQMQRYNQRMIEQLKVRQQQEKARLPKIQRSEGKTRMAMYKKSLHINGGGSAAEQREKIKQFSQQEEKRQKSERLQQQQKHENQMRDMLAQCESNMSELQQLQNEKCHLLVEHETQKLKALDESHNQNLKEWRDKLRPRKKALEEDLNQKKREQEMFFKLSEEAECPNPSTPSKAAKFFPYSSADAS
Protocol: as §1, §2

[11] = biological target: CHK2 (Homo sapiens (Human), UniProt O96017); experiment: as above; type: biochemical; conditions: 100 nM, ATP 10 μM; read-out: Residual activity (%) CHK2
Sequence of CHK2 (O96017 whole entry): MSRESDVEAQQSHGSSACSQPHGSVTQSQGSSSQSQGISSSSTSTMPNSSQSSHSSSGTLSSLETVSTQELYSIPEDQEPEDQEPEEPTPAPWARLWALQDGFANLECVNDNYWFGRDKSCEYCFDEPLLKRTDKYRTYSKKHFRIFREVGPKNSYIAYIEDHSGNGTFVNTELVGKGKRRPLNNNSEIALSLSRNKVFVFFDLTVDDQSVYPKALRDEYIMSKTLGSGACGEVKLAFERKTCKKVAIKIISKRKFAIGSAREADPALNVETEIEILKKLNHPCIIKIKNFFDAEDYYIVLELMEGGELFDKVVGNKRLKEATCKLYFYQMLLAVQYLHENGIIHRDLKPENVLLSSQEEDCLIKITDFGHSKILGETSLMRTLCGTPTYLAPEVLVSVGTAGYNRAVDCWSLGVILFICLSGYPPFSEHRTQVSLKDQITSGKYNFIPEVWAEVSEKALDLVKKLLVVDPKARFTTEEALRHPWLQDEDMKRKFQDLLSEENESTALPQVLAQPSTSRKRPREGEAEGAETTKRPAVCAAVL
Protocol: as §1, §2

[12] = biological target: ARKS/NUAK1 (Homo sapiens (Human), UniProt O60285); experiment: as above; type: biochemical; conditions: 100 nM, ATP 10 μM; read-out: Residual activity (%) ARKS/NUAK1
Sequence of ARKS/NUAK1 (O60285 whole entry): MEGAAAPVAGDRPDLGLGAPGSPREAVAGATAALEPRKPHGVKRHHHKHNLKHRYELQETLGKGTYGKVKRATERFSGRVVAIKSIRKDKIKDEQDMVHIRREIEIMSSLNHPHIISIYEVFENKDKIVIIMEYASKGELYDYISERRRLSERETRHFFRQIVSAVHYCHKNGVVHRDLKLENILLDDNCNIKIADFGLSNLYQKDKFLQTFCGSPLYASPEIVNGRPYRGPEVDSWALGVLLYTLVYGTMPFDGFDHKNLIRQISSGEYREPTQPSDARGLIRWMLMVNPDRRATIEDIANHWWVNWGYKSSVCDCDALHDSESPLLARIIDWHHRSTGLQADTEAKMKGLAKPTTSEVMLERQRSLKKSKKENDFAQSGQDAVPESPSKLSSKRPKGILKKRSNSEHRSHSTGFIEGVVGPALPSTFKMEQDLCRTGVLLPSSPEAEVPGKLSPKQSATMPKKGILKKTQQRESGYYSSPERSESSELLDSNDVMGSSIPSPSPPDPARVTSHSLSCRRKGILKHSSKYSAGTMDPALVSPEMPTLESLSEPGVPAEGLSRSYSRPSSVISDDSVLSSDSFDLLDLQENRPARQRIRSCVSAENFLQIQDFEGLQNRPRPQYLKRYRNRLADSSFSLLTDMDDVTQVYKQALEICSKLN
Protocol: as §1, §2

[13] = biological target: CAMK2D (Homo sapiens (Human), UniProt Q13557); experiment: as above; type: biochemical; conditions: 100 nM, ATP 10 μM; read-out: Residual activity (%) CAMK2D
Protocol: as §1, §2

[14] = biological target: MARK3 (Homo sapiens (Human), UniProt P27448); experiment: as above; type: biochemical; conditions: 100 nM, ATP 10 μM; read-out: Residual activity (%) MARK3
Protocol: as §1, §2

[15] = biological target: BRSK2 (Homo sapiens (Human), UniProt Q8IWQ3); experiment: as above; type: biochemical; conditions: 100 nM, ATP 10 μM; read-out: Residual activity (%) BRSK2
Protocol: as §1, §2

[16] = biological target: BRSK1 (Homo sapiens (Human), UniProt Q8TDC3); experiment: as above; type: biochemical; conditions: 100 nM, ATP 10 μM; read-out: Residual activity (%) BRSK1
Sequence of BRSK1 (Q8TDC3 whole entry): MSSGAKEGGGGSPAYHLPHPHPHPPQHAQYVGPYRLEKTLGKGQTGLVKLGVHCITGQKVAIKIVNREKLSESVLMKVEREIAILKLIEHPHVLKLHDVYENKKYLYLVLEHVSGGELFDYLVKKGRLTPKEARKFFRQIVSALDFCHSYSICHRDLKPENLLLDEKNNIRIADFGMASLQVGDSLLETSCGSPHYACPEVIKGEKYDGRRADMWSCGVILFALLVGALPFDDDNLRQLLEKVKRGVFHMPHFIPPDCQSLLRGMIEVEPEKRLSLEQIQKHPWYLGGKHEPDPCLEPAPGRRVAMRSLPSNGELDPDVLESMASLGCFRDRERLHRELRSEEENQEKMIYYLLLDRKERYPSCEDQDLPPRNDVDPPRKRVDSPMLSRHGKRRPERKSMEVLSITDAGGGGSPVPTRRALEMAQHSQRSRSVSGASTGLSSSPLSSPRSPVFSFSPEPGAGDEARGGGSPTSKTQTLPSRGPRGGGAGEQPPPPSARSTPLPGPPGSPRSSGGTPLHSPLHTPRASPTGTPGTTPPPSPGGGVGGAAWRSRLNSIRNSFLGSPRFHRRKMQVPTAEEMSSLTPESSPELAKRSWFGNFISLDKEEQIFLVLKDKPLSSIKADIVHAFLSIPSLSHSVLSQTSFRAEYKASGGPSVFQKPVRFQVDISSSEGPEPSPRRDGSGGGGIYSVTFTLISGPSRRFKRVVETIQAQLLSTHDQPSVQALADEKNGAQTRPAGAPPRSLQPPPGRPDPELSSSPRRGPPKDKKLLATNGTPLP
Protocol: as §1, §2

T1 sequence (O14757 whole entry): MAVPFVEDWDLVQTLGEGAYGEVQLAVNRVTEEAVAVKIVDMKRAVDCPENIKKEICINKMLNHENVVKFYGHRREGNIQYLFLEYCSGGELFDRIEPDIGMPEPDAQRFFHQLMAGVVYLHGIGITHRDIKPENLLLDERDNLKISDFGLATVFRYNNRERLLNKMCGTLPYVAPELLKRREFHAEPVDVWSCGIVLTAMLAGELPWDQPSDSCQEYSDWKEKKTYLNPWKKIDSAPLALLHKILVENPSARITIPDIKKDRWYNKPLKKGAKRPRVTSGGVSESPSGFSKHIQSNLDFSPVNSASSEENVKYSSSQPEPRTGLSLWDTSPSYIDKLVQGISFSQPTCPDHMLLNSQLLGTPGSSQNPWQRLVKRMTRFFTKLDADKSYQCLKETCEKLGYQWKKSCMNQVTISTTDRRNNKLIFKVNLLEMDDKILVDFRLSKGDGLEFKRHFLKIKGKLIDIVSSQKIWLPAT

SMILES | remaining activity at 0.1 µM [1] [%] | CHK1 inhibitory activity relative to prexasertib [2] [fold] | IC50 [2] [µM] | effect of suppressing CHK1 activity (in words) ([2]; compared with prexasertib) | inhibition at 0.0001 µM ([2]; read-out: CHK1 inhibition % at 0.1 nM) [%] | IC50 [3] [µM] | effect on human bone marrow cell colony formation (in words) [4] | Colony count (/well), mean [4] | effect on myeloid cells induced to differentiate from human bone marrow cells (in words) [5] | IC50 [6] [µM] | remaining activity at 0.1 µM [7] [%] | remaining activity at 0.1 µM [8] [%] | remaining activity at 0.1 µM [9] [%] | remaining activity at 0.1 µM [10] [%] | remaining activity at 0.1 µM [11] [%] | remaining activity at 0.1 µM [12] [%] | remaining activity at 0.1 µM [13] [%] | remaining activity at 0.1 µM [14] [%] | remaining activity at 0.1 µM [15] [%] | remaining activity at 0.1 µM [16] [%]
COc1ccnc(OCCCN)c1-c1cc(Nc2cnc(C#N)cn2)n[nH]1 [Example 1, 5-({5-[2-(3-aminopropoxy)-4-methoxypyridin-3-yl]-1H-pyrazol-3-yl}amino)pyrazine-2-carbonitrile] | 2.87 | ≥ 5 | < 0.0001 | more potent effect of suppressing CHK1 activity than prexasertib; also recorded: especially potently suppressing CHK1 activity | 55 | 11.5 | does not exhibit an effect of suppressing human bone marrow colony formation | 34 /well | does not exhibit an effect of suppressing myeloid cells induced to differentiate from human bone marrow cells | < 0.0003 |  |  |  |  |  |  |  |  |  | 
COc1cccc(OCCCN)c1-c1cc(Nc2cnc(C#N)cn2)n[nH]1 [Prexasertib, reference compound] |  |  |  |  |  |  | exhibits an effect of suppressing human bone marrow cell colony formation | 19 /well | exhibited an effect of suppressing myeloid cells induced to differentiate from human bone marrow cells |  | 18.1 | 14.1 | 14.3 | 6.15 | 6.41 | 17.9 | 6.07 | 12.6 | 14.4 | 21.7
